The NIST ThermoML archive (doi:10.1021/acs.jced.9b00449)
Numbers after ± are expanded uncertainties.

Experiment: mn = molality of the nth substance listed, in mol/kg
Details: 100 kPa, Liquid; for kinematic viscosity: Capillary tube (Ostwald / Ubbelohde) method; for mass density: Pycnometric method

## [K+].[O]=[V](=[O])[O-] [potassium vanadate] + O
293.15 K, m1 = 0.615
  kinematic viscosity: 1.03e-06 ± 1.2e-08 m2/s
  mass density: 1063 ± 11 kg/m3
303.15 K, m1 = 0.874
  kinematic viscosity: 8.5e-07 ± 4e-08 m2/s
  mass density: 1083 ± 16 kg/m3
313.15 K, m1 = 1.223
  kinematic viscosity: 7.51e-07 ± 2e-08 m2/s
  mass density: 1126 ± 11 kg/m3
323.15 K, m1 = 1.884
  kinematic viscosity: 7.42e-07 ± 3.6e-08 m2/s
  mass density: 1171 ± 12 kg/m3
